For 32 compounds, IC50 results are on record in patent publication US9994594B2, “Inhibitors of arginase and their therapeutic applications” (MARS, INCORPORATED, priority 2010, dated 2018).

Each structure is given as a SMILES string. Where a name gives a salt, the structure may show the parent alone.

For one test, the target named is T1, arginase II (ARG II) (Homo sapiens, UniProt P78540).
T1 sequence (P78540 23-354): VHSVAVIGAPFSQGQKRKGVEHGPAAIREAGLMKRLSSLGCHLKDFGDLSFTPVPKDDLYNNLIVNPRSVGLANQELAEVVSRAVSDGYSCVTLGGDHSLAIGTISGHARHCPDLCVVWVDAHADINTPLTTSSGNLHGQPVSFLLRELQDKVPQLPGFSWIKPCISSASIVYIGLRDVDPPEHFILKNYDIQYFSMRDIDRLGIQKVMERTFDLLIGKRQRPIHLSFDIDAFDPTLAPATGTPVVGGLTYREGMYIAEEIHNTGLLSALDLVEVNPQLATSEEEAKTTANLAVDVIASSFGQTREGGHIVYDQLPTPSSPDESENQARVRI
Put plainly: Inhibition of arginase II, spectrophotometric urea assay at 530 nm. In kind it is biochemical. The conditions noted are these: Formula I compounds, Table 2; read-out: Potency (ARG II). The essentials:
(§1)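 IC50 was derived by regression of OD530 normalized to uninhibited-enzyme controls against log concentration. Urea from 60-min, 37 °C turnover of L-arginine with manganese sulfate was detected after acid o-phthaldialdehyde/primaquine quench and 10 min colour development. Arginase I and II came from 100 ng/ml stocks in pH 7.4 phosphate with ovalbumin.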

A further test deals with T2, human arginase I (ARG I) (Homo sapiens, UniProt P05089).
T2 sequence (P05089 1-322): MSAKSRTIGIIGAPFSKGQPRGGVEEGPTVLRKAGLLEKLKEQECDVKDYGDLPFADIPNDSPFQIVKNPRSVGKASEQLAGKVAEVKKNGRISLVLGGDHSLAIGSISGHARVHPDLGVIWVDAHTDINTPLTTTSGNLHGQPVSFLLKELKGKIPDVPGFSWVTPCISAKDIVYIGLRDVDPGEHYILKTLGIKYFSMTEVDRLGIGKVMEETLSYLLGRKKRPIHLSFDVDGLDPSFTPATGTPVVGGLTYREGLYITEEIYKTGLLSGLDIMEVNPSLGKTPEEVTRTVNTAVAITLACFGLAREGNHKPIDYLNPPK
Put plainly: Inhibition of arginase I, spectrophotometric urea assay at 530 nm. In kind it is biochemical. The settings on record: Formula I compounds, Table 2; read-out: Potency (ARG I). The essentials:
as §1

In the case of `NC(CCCCB(O)O)(CCN1CC(O)C1)C(=O)O` (stereo not shown) [compound 59, 2-amino-6-borono-2-(2-(3-hydroxyazetidin-1-yl)ethyl)hexanoic acid dihydrochloride], the IC50 on arginase II (ARG II) fell in the range of 2000 to 5000 nM; on human arginase I (ARG I), 1000 to 2000 nM.

As for `CCCCC1(NCCC(N)(CCCCB(O)O)C(=O)O)CC1` (stereo not shown) [compound 60, 2-amino-6-borono-2-(2-(1-butylcyclopropylamino)ethyl)hexanoic acid dihydrochloride], the IC50 was 251 to 1000 nM at arginase II (ARG II) and 0.1 to 250 nM on human arginase I (ARG I).

For `COc1ccc(CC2(NCCC(N)(CCCCB(O)O)C(=O)O)CC2)cc1` (stereo not shown) [compound 61, 2-amino-6-borono-2-(2-(1-(4-methoxybenzyl)cyclopropylamino)ethyl)hexanoic acid], the results for the IC50 at arginase II (ARG II) and at human arginase I (ARG I) were 1000 to 2000 nM and 251 to 1000 nM, respectively.

As for `NC(CCCCB(O)O)(CCN1CCc2ccsc2C1)C(=O)O` (stereo not shown) [compound 62, 2-amino-6-borono-2-(2-(4,5-dihydrothieno[2,3-c]pyridin-6(7H)-yl)ethyl)hexanoic acid dihydrochloride], the IC50 lay in the range of 1000 to 2000 nM on arginase II (ARG II) and 251 to 1000 nM on human arginase I (ARG I).

With `NC(CCCCB(O)O)(CCNCCCc1ccc(F)c(F)c1)C(=O)O` (stereo not shown) [compound 63, 2-amino-6-borono-2-(2-(3-(3,4-difluorophenyl)propylamino)ethyl)hexanoic acid dihydrochloride], the IC50 on arginase II (ARG II) and on human arginase I (ARG I) was 0.1 to 250 nM throughout.

For `NC(CCCCB(O)O)(CCNCCCc1cc(C(F)(F)F)ccc1Cl)C(=O)O` (stereo not shown) [compound 64, 2-amino-6-borono-2-(2-(3-(2-chloro-5-(trifluoromethyl)phenyl)propylamino)ethyl)hexanoic acid dihydrochloride], the IC50 on arginase II (ARG II) and on human arginase I (ARG I) was 0.1 to 250 nM throughout.

For the compound `COc1cccc(CCCNCCC(N)(CCCCB(O)O)C(=O)O)c1` (stereo not shown) [compound 65, 2-amino-6-borono-2-(2-(3-(3-methoxyphenyl)propylamino)ethyl)hexanoic acid dihydrochloride], the IC50 on arginase II (ARG II) and on human arginase I (ARG I) was 0.1 to 250 nM in each case.

As to `NC(CCCCB(O)O)(CCNCCCc1ccc(Cl)cc1Cl)C(=O)O` (stereo not shown) [compound 66, 2-amino-6-borono-2-(2-(3-(2,4-dichlorophenyl)propylamino)ethyl)hexanoic acid dihydrochloride], the IC50 on arginase II (ARG II) and at human arginase I (ARG I) was 0.1 to 250 nM in each case.

Take `CC(C)(C)NCCC(N)(CCCCB(O)O)C(=O)O` (stereo not shown) [compound 67, 2-amino-6-borono-2-(2-(tert-butylamino)ethyl)hexanoic acid dihydrochloride]: the IC50 on arginase II (ARG II) and at human arginase I (ARG I) was 251 to 1000 nM in each case.

For the compound `NC(CCCCB(O)O)(CCNC1CC1)C(=O)O` (stereo not shown) [compound 68, 2-amino-6-borono-2-(2-(cyclopropylamino)ethyl)hexanoic acid dihydrochloride], the IC50 on arginase II (ARG II) and on human arginase I (ARG I) was 251 to 1000 nM in each case.

As for `COc1ccc(CNCCC(N)(CCCCB(O)O)C(=O)O)cc1` (stereo not shown) [compound 69, 2-amino-6-borono-2-(2-(4-methoxybenzylamino)ethyl)hexanoic acid dihydrochloride], the IC50 on arginase II (ARG II) and on human arginase I (ARG I) was 0.1 to 250 nM throughout.

Turning to `NC(CCCCB(O)O)(CCNCc1ccccc1)C(=O)O` (stereo not shown) [compound 70, 2-amino-2-(2-(benzylamino)ethyl)-6-boronohexanoic acid dihydrochloride], the IC50 on arginase II (ARG II) lay within 251 to 1000 nM; at human arginase I (ARG I) it was 0.1 to 250 nM.

For `CN(C)CCN(C)CCC(N)(CCCCB(O)O)C(=O)O` (stereo not shown) [compound 71, 2-amino-6-borono-2-(2-((2-(dimethylamino)ethyl)(methyl)amino)ethyl)hexanoic acid trihydrochloride], the IC50 on arginase II (ARG II) and on human arginase I (ARG I) was 2000 to 5000 nM throughout.

For `NC(CCCCB(O)O)(CCNC1CCCC1)C(=O)O` (stereo not shown) [compound 72, 2-amino-6-borono-2-(2-(cyclopentylamino)ethyl)hexanoic acid dihydrochloride], the IC50 at arginase II (ARG II) and at human arginase I (ARG I) was 251 to 1000 nM in each case.

Regarding `NCCN(CCC(N)(CCCCB(O)O)C(=O)O)Cc1ccccc1` (stereo not shown) [compound 73, 2-amino-2-(2-((2-aminoethyl)(benzyl)amino)ethyl)-6-boronohexanoic acid trihydrochloride], the IC50 lay in the range of 251 to 1000 nM on arginase II (ARG II) and 0.1 to 250 nM at human arginase I (ARG I).

As to `CC(C)Oc1ccc(CN(C)CCC(N)(CCCCB(O)O)C(=O)O)cc1` (stereo not shown) [compound 74, 2-amino-6-borono-2-(2-((4-isopropoxybenzyl)(methyl)amino)ethyl)hexanoic acid dihydrochloride], the IC50 on arginase II (ARG II) was above 5000 nM; on human arginase I (ARG I) it was 2000 to 5000 nM.

In the case of `NC(CCCCB(O)O)(CCN1CCC1)C(=O)O` (stereo not shown) [compound 75, 2-amino-2-(2-(azetidin-1-yl)ethyl)-6-boronohexanoic acid dihydrochloride], the IC50 on arginase II (ARG II) fell in the range of 1000 to 2000 nM; on human arginase I (ARG I), 251 to 1000 nM.

With `NC(CCCCB(O)O)(CCN1CCN(c2ccccc2)CC1)C(=O)O` (stereo not shown) [compound 76, 2-amino-6-borono-2-(2-(4-phenylpiperazin-1-yl)ethyl)hexanoic acid dihydrochloride], the IC50 on arginase II (ARG II) and on human arginase I (ARG I) was above 5000 nM throughout.

As for `COCCN1CCN(CCC(N)(CCCCB(O)O)C(=O)O)CC1` (stereo not shown) [compound 77, 2-amino-6-borono-2-(2-(4-(2-methoxyethyl)piperazin-1-yl)ethyl)hexanoic acid trihydrochloride], the figures for the IC50 at arginase II (ARG II) and on human arginase I (ARG I) were above 5000 nM and 2000 to 5000 nM, respectively.

For the compound `CN(CCC(N)(CCCCB(O)O)C(=O)O)CC(O)c1ccccc1` (stereo not shown) [compound 78, 2-amino-6-borono-2-(2-((2-hydroxy-2-phenylethyl)(methyl)amino)ethyl)hexanoic acid dihydrochloride], the IC50 at arginase II (ARG II) and on human arginase I (ARG I) was 2000 to 5000 nM each time.

Take `NC(CCCCB(O)O)(CN1CCCCC1)C(=O)O` (stereo not shown) [compound 79, 2-amino-6-borono-2-(piperidin-1-ylmethyl)hexanoic acid]: the IC50 was above 5000 nM at arginase II (ARG II) and 2000 to 5000 nM on human arginase I (ARG I).

With `CN1CCN(CC(N)(CCCCB(O)O)C(=O)O)CC1` (stereo not shown) [compound 80, 2-amino-6-borono-2-((4-methylpiperazin-1-yl)methyl) hexanoic acid trihydrochloride], the values for the IC50 at arginase II (ARG II) and on human arginase I (ARG I) were above 5000 nM and 2000 to 5000 nM, respectively.

For the compound `CCCNCC(N)(CCCCB(O)O)C(=O)O` (stereo not shown) [compound 83, 2-amino-6-borono-2-((propylamino)methyl)hexanoic acid dihydrochloride], the IC50 on arginase II (ARG II) and at human arginase I (ARG I) was 2000 to 5000 nM each time.

On to `NC(CCCCB(O)O)(CNCc1ccccc1)C(=O)O` (stereo not shown) [compound 84, 2-amino-2-((benzylamino)methyl)-6-boronohexanoic acid], for which the IC50 was above 5000 nM at arginase II (ARG II) and 2000 to 5000 nM at human arginase I (ARG I).

Regarding `C[C@@H](O)CNCC(N)(CCCCB(O)O)C(=O)O` (stereo partly drawn) [compound 85, 2-amino-6-borono-2-(((R)-2-hydroxypropylamino)methyl)hexanoic acid dihydrochloride], the IC50 at arginase II (ARG II) and on human arginase I (ARG I) was 2000 to 5000 nM each time.

In the case of `CCCCNCC(N)(CCCCB(O)O)C(=O)O` (stereo not shown) [compound 86, 2-amino-6-borono-2-((butylamino)methyl)hexanoic acid dihydrochloride], the IC50 at arginase II (ARG II) and at human arginase I (ARG I) was 2000 to 5000 nM each time.

For the compound `NC(CCCCB(O)O)(CNC1CCOCC1)C(=O)O` (stereo not shown) [compound 87, 2-amino-6-borono-2-((tetrahydro-2H-pyran-4-ylamino)methyl)hexanoic acid dihydrochloride], the IC50 on arginase II (ARG II) and at human arginase I (ARG I) was 1000 to 2000 nM throughout.

Turning to `CC(C)CC(CO)NCC(N)(CCCCB(O)O)C(=O)O` [compound 88, 2-amino-6-borono-2-(((S)-1-hydroxy-4-methylpentan-2-ylamino)methyl)hexanoic acid dihydrochloride], the IC50 lay in the range of 1000 to 2000 nM on arginase II (ARG II) and 2000 to 5000 nM at human arginase I (ARG I).

Consider `C[C@H](NCC(N)(CCCCB(O)O)C(=O)O)c1ccccc1` (stereo partly drawn) [compound 90, 2-amino-6-borono-2-(((S)-1-phenylethylamino)methyl)hexanoic acid dihydrochloride], for which the IC50 on arginase II (ARG II) and on human arginase I (ARG I) was 2000 to 5000 nM each time.

On to `C[C@H](CO)NCCC(N)(CCCCB(O)O)C(=O)O` (stereo partly shown) [compound 91], for which the IC50 at arginase II (ARG II) and at human arginase I (ARG I) was 2000 to 5000 nM throughout.

For the compound `NC(CCCCB(O)O)(CCOc1ccc(Cl)cc1)C(=O)O` (stereo not shown) [compound 92, 2-amino-6-borono-2-(2-(4-chlorophenoxy)ethyl)hexanoic acid hydrochloride], the IC50 on arginase II (ARG II) and on human arginase I (ARG I) was above 5000 nM throughout.

Turning to `COc1ccc(OCCC(N)(CCCCB(O)O)C(=O)O)cc1` (stereo not shown) [compound 93, 2-amino-6-borono-2-(2-(4-methoxyphenoxy)ethyl)hexanoic acid hydrochloride], the IC50 at arginase II (ARG II) and at human arginase I (ARG I) was above 5000 nM each time.
